{"source": "patent US5885998A", "about": "(priority 1998, dated 1999)", "key": {"[1]": {"conditions": "literature report; cited from earlier work"}, "[2]": {"conditions": "literature report; cited from earlier work", "remark": "listed apart in the source"}, "[3]": {"system": "synaptosomes from the striatal area of rat brain (dopamine release)", "experiment": "Dopamine release from striatal synaptosomes", "type": "cell-based, rat (Sprague-Dawley)", "protocol": "Dopamine release was measured by preparing synaptosomes from the striatal area of rat brain obtained from Sprague-Dawley rats generally according to the procedures set forth by Nagy et al., J. Neurochem., Vol. 43, pp. 1114-1123 (1984). Striata from 4 rats were homogenized in 2 ml of 0.32M sucrose buffered with 5 mM HEPES (pH 7.5), using a glass-Teflon tissue grinder. The homogenate was diluted to 5 ml with additional homogenization solution and centrifuged at 1,000×g for 10 min. This procedure was repeated on the new pellet and the resulting supernatant was centrifuged at 12,000×g for 20 min. A 3 layer discontinuous Percoll gradient consisting of 16 percent, 10 percent and 7.5 percent Percoll in HEPES-buffered sucrose was made with the final pellet dispersed in the top layer. […] Using this method, 30 to 90 percent of the dopamine was taken up into the synaptosomes, as determined by scintillation counting following filtration through glass fiber filters soaked with 0.5 percent polyethyleneimine. […] After the addition of 0.2 ml of a solution containing various concentrations of ligand, the perfusate was collected into scintillation vials at 1 min. intervals and the dopamine released was quantified by scintillation counting. Peaks of radioactivity released above background were summed and the average basal release during that time was subtracted from the total."}}, "data": [{"molecule": "CN1CCC[C@H]1c1cccnc1", "note": "[Sample No. C-1, (S)-(-)-nicotine]", "values": [{"measurement": "effect towards the treatment of various CNS disorders", "setting": "[1]", "result": "positive effect towards the treatment of various CNS disorders"}]}, {"molecule": "CN1CCCC1c1cccnc1", "note": "(stereo not shown) [nicotine]", "values": [{"measurement": "potentiation of certain pharmaceutical compositions used for treatment of certain CNS disorders", "setting": "[2]", "result": "potentiates the pharmacological behavior of certain pharmaceutical compositions"}]}, {"molecule": "CNCC/C=C\\c1cccnc1", "note": "[Sample No. 5, (Z)-metanicotine]", "values": [{"measurement": "Dopamine Release Emax", "setting": "[3]; release as percentage of release obtained with an equal concentration of (S)-(-)-nicotine", "result": 88, "unit": "% nicotine"}]}, {"molecule": "CNCC/C=C/c1cccnc1", "note": "[Sample No. 8, (E)-metanicotine]", "values": [{"measurement": "Emax", "setting": "[3]; Rattus norvegicus", "result": 80, "unit": "%"}]}]}
